# In US20120316199A1, “COMPOSITIONS AND METHODS FOR TREATING, CONTROLLING, REDUCING, OR AMELIORATING INFLAMMATORY PAIN” (priority 2011, published 2012):
# Several values for one entry are separate records, joined by “and”; a condition that tells them apart may be missing. Equal values may be shown once.
# How the values were obtained:
# Assay type in all cases: in vivo, Rabbit (New Zealand)
# pupillary diameter = assay: Pupillary diameter measurement, rabbit paracentesis model; details: 0.5% formulation
# [1] = test system: iris and conjunctival vessels, anterior chamber; assay: Clinical evaluation by slit lamp (clinical score), rabbit paracentesis model; set-up: key to Clinical Score −180 min / Clinical Score −5 min / Clinical Score +115 min: 0=normal; 1=discrete dilatation of iris and conjunctival vessels; 2=moderate dilatation of iris and conjunctival vessels; 3=intense iridal hyperemia with flare in the anterior chamber; 4=intense iridal hyperemia with flare in the anterior chamber and presence of fibrinous exudates; details: 0.5% formulation
# [2] = test system: PGE2 in the aqueous humor; assay: Prostaglandin E2 (PGE2) measurement in aqueous humor, rabbit paracentesis model; details: 0.5% formulation
# Experimental: (§1) Each rabbit was placed in a restraint device and tagged with the alphanumeric code. The formulations were instilled (50 μl) into the conjunctival sac of both eyes 180, 120, 90 and 30 min before the first paracentesis; then 15, 30, 90 min after the first paracentesis. To perform the first paracentesis the animals were anaesthetized by intravenous injection of 5 mg/kg Zoletil® (Virbac; 2.5 mg/kg tiletamine HCl and 2.5 mg/kg zolazepam HCl) and one drop of local anesthetic (Novesina®, Novartis) was administered to the eye. Anterior chamber paracentesis was performed with a 26 G needle attached to a tuberculin syringe; the needle was introduced into the anterior chamber through the cornea, taking care not to damage the tissues. Two hours after the first paracentesis, the animals were sacrificed with 0.4 ml Tanax® (Intervet International B.V.) and the second paracentesis was performed. About 100 μl of aqueous humor were removed at the second paracentesis. Aqueous humor was immediately split in four aliquots and stored at −80° C. until analysis. Then both eyes were enucleated and the iris-ciliary body was carefully excised, placed in polypropylene tubes, and stored at −80° C. until analysis.
# For the quantitative determination of PGE2 in the aqueous humor we used the PGE2 Immunoassay kit (R&D Systems; Cat. No. KGE004; Lot. No. 240010). Eleven microliters or 16 μl of aqueous humor were diluted to 110 μl or 160 μl with the calibrator diluent solution provided with the kit. One hundred microliters of samples and of standards were load into a 96-well plate and recorded in a plate layout. Samples were treated following the assay procedure described in the kit. A microplate reader (GDV, Italy; model DV 990 B/V6) set at 450 nm (wavelength correction at 540 nm) was used for making the calibration and analyzing the samples.
# (§2) Pupillary diameter, PGE2, protein, PMN, and MPO were expressed as mean±SEM. Statistical analysis was performed using one way ANOVA followed by a Newman-Keuls post hoc test. Clinical score was expressed as % of eyes and the statistical analysis was performed using Kruskal-Wallis followed by a Dunn post hoc test. P<0.05 was considered statistically significant in both cases. Prism 4 software (GraphPad Software, Inc.) was used for the analysis and graphs.
# [3] = test system: protein concentration in the aqueous humor; assay: Protein measurement in aqueous humor, rabbit paracentesis model; details: 0.5% formulation, second paracentesis
# Experimental: as §1
# For protein concentration determination in the aqueous humor we used the Protein Quantification Kit (Fluka; Cat. No. 77371; Lot. No. 1303129). Five microliters of aqueous humor were diluted to 100 μl with water. Twenty microliters of samples and of standards were load into a 96-well plate and recorded in a plate layout. Samples were treated following the assay procedure described in the kit. A microplate reader (GDV, Italy; model DV 990 B/V6) set at 670 nm was used for making the calibration and analyzing the samples.
# as §2
# [4] = test system: leukocytes (PMN) in aqueous humor; assay: Leukocytes (PMN) measurement in aqueous humor, rabbit paracentesis model; details: 0.5% formulation; second paracentesis; group mean
# Experimental: as §1
# For the determination of the number of leukocytes we used a haernocytometer (Improved Neubauer Chamber; Bright-line, Hausser Scientific) and a Polyvar 2 microscope (Reichert-Jung).
# as §2
# [5] = test system: MPO activity in iris-ciliary body; assay: Myeloperoxidase (MPO) activity in iris-ciliary body, rabbit paracentesis model
# Experimental: as §1
# The activity of MPO was measured as previously described by Williams et al.[5] The iris-ciliary bodies were carefully dried, weighed and immersed in 1 ml of hexa-decyl-trimethyl-ammonium bromide solution. Then, the samples were sonicated for 10 sec on ice by a ultrasound homogenizer (HD 2070, Bandelin electronic), freeze-thawed three times, sonicated for 10 sec and centrifuged at 14,000 g for 10 min to remove cellular debris. An aliquot of the supernatant (40-200 μl) was diluted to 3 ml with the o-dianisidine 2HCl/H2O2 solution. The change in absorbance at 460 nm was continuously monitored for 5 min by a spectrophotometer (UV/Vis Spectrometer Lambda EZ 201; Perkin Elmer). The slope of the line (Δ/min) was determined for each sample and used to calculate the number of units of MPO in the tissue as follows:
# Values were expressed as units of MPO/g of tissue.
# as §2
# [6] = 5 min before the first paracentesis, raw data per eye
# [7] = 5 min before the second paracentesis, raw data per eye
compound,measurement,setting,value
"CCOC(=O)O[C@]1(C(=O)OCCl)CC[C@H]2[C@@H]3CCC4=CC(=O)C=C[C@]4(C)[C@H]3[C@@H](O)C[C@@]21C [LE, loteprednol etabonate]",Pupillary diameter T2: −5 min,pupillary diameter; [6],6.0 mm and 6.5 mm
same,Pupillary diameter T3: +115 min,pupillary diameter; [7],4.5 mm and 5.0 mm and 5.5 mm and 6.0 mm
same,Pupillary diameter T1: −180 min,"pupillary diameter; basal, raw data per eye",6.0 mm and 6.5 mm
same,Mean (mm) Δ(T3 − T1) of pupillary diameter,"pupillary diameter; group mean, n=8 eyes",−0.9 mm
same,Clinical Score −5 min,[1]; [6],0
same,Clinical Score +115 min,[1]; [7],2 and 1
same,Percentage of eyes with clinical score 1,"[1]; +115 min, N=8 eyes",75%
same,Percentage of eyes with clinical score 2,"[1]; +115 min, N=8 eyes",25%
same,Clinical Score −180 min,"[1]; basal, raw data per eye",0
same,"Clinical score, difference versus CTR (vehicle)","[1]; p<0.05, Kruskal-Wallis, Dunn",significant difference versus CTR
same,Percentage of eyes with clinical score 0,"[1]; −5 min, N=8 eyes",100%
same,Percentage of eyes with clinical score 0,"[1]; −180 min (basal), N=8 eyes",100%
same,"PGE2 in aqueous humor, statistical significance versus CTR",[2]; p<0.05,statistically significant versus CTR
same,"PGE2 level in aqueous humor, Mean","[2]; second paracentesis, group mean",0.672 ng/mL
same,"Protein level in aqueous humor, Mean",[3]; group mean,33.905 mg/mL
same,"Protein level in aqueous humor, raw data",[3]; per eye,36.14 mg/mL and 39.10 mg/mL and 34.69 mg/mL and 26.10 mg/mL and 26.30 mg/mL and 28.16 mg/mL and 40.90 mg/mL and 39.85 mg/mL
same,"PMN numbers in aqueous humor, Mean",[4],28.333 number/μl
same,MPO activity in iris-ciliary body,"[5]; 0.5% LE, individual samples collected after the second paracentesis",1.01 Unit/g
same,"MPO activity in iris-ciliary body, Mean","[5]; 0.5% formulation, after the second paracentesis, group mean",0.661 MPO Unit/g
